The test system of the assay is PMA-differentiated THP-1 cells. As to the kind of experiment: IL-1β production in PMA-differentiated THP-1 cells stimulated with gramicidin (hTHP-1 assay containing 2% fetal bovine serum; Procedures 1 and 2). The format is cell-based, human. To be noted: 2% fetal bovine serum. Summed up:
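PMA-primed (20 ng/ml, 16-18 h) THP-1 cells in RPMI with 2% FBS, 50,000 cells/well, were preincubated 1 h with compound (0.0017-100 μM final, 0.37% DMSO), then stimulated 2 h with 5 μM gramicidin. Supernatant IL-1β measured by HTRF.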

Setting [1] is: Homo sapiens, THP-1, Table B2, class symbols, read-out: hTHP-1 IC50.
The mark [2] stands for this setting: Homo sapiens, THP-1, Table B2, numeric bounds, read-out: hTHP-1 IC50.
The mark [3] stands for this setting: Table B2, class symbols, read-out: hTHP-1 IC50.
The mark [4] stands for this setting: Homo sapiens, THP-1, Table B1, class symbols, read-out: Average IC50 of compounds in hTHP-1 assay: hTHP-1 IC50.
The mark [5] stands for this setting: Homo sapiens, THP-1, Table B3, hTHP-1 assay, class symbols, read-out: IC50.
Where [6] appears, read: Table B4, class symbols, read-out: hTHP-1 IC50.

pIC50: −log10 of the molar value. Where two headings read alike, the source gives them in different places.

`Cc1c(C(F)(F)F)nc2c(c1NC(=O)N=[S@](N)(=O)c1ccn(C)n1)CCC2` (single isomer, unassigned) [Compound 730a]: under setting [1], the pIC50 was 4.52 to 5.30. As for `C[C@@H]1CCc2c1nc1c(c2NC(=O)N=S(N)(=O)c2cnc([C@@](C)(O)CO)s2)CCC1` (single isomer, unassigned) [Example 730], the pIC50 (Homo sapiens, THP-1, Table B4, class symbols, read-out: hTHP-1 IC50) was 6.00 to 6.70. For `NS(=O)(=NC(=O)Nc1c2c(nc3c1CCC31CC1)CCC2)c1cnn(C(F)F)c1` (single isomer, unassigned) [Compound 638a, (R) or (S)-1-(Difluoromethyl)-N′-((1′,5′,6′,7′-tetrahydro-2′H-spiro[cyclopropane-1,3′-dicyclopenta[b,e]pyridin]-8′-yl)carbamoyl)-1H-pyrazole-4-sulfonimidamide], the pIC50 under setting [1] is 5.30 to 6.00. As for `CC(C)(O)c1cc(C#N)cc(S(N)(=O)=NC(=O)Nc2c3c(nc4c2CCC4(C)C)CCC3)c1` (single isomer, unassigned) [Compound 674a, (S) or (R)-3-Cyano-N′-((3,3-methyl-1,2,3,5,6,7-hexahydrodicyclopenta [b,e]pyridin-8-yl)carbamoyl)-5-(2-hydroxypropan-2-yl)benzene-sulfonimidamide], under setting [2], the pIC50 is less than 4.52. For `CC(C)(O)c1cc(F)c(S(N)(=O)=NC(=O)Nc2cc(CC(F)(F)F)nc3c2CCC3)s1` (stereo not drawn) [Compound 602, 3-Fluoro-5-(2-hydroxypropan-2-yl)-N′-((2-(2,2,2-trifluoroethyl)-6,7-dihydro-5H-cyclopenta[b]pyridin-4-yl)carbamoyl)thiophene-2-sulfonimidamide], the pIC50 under setting [1] was 5.30 to 6.00. On to `CCc1nc2c(c(NC(=O)N=S(N)(=O)c3cnc(C(C)(C)O)s3)c1C1CC1)CCC2` (single isomer, unassigned) [Compound 630b, (R) or (S)-N′-((3-cyclopropyl-2-ethyl-6,7-dihydro-5H-cyclopenta[b]pyridin-4-yl)carbamoyl)-2-(2-hydroxypropan-2-yl)thiazole-5-sulfonimidamide], for which, under setting [3], the negative-log IC50 (pIC50) was 6.00 to 6.70.

`C[C@@H]1CCc2c1nc1c(c2NC(=O)N=S(N)(=O)c2ccn(C(C)(F)F)n2)CCC1` (stereo partly drawn) [Compound 723c]: under setting [1], the pIC50 is 6.00 to 6.70. As to `Cc1sc(S(N)(=O)=NC(=O)Nc2c3c(nc4c2CCC4)CCC3)cc1C(C)(C)O` (stereo not drawn) [Compound 107, N′-((1,2,3,5,6,7-hexahydrodicyclopenta[b,e]pyridin-8-yl)carbamoyl)-4-(2-hydroxypropan-2-yl)-5-methylthiophene-2-sulfonimidamide], the pIC50 under setting [4] was 6.00 to 6.70. As to `CC(C)(O)c1sc(S(N)(=O)=NC(=O)Nc2c3c(nc4c2CCC42CC2)CCC3)cc1F` (stereo not drawn) [Compound 614, 4-Fluoro-5-(2-hydroxypropan-2-yl)-N′-((1′,5′,6′,7′-tetrahydro-2′H-spiro[cyclopropane-1,3′-dicyclopenta[b,e]pyridin]-8′-yl)carbamoyl)thiophene-2-sulfonimidamide], the pIC50 under setting [1] was 6.00 to 6.70. On to `Cc1c(C(F)(F)F)nc2c(c1NC(=O)N=S(N)(=O)c1ccn(C(F)F)n1)CCC2` (single isomer, unassigned) [Compound 621a, (S) or (R)-1-(Difluoromethyl)-N′-((3-methyl-2-(trifluoromethyl)-6,7-dihydro-5H-cyclopenta[b]pyridin-4-yl)carbamoyl)-1H-pyrazole-3-sulfonimidamide], for which the pIC50 under setting [3] is 4.52 to 5.30. For the compound `C[C@](O)(CO)c1cc(F)c(S(N)(=O)=NC(=O)Nc2c3c(nc4c2CCC42CC2)CCC3)s1` (stereo partly drawn) [Example 608, 5-((S)-1,2-dihydroxypropan-2-yl)-3-fluoro-N′-((1′,5′,6′,7′-tetrahydro-2′H-spiro[cyclopropane-1,3′-dicyclopenta[b,e]pyridin]-8′-yl)carbamoyl)thiophene-2-sulfonimidamide], the pIC50 under setting [5] is 6.70 to 7.40. With `CC(C)(O)c1csc(S(N)(=O)=NC(=O)Nc2c3c(nc4c2CCC42CC2)CCC3)c1` (single isomer, unassigned) [Compound 114b, (S) or (R)-4-(2-hydroxy-propan-2-yl)-N′-((1′,5′,6′,7′-tetrahydro-2′H-spiro[cyclopropane-1,3′-dicyclopenta[b,e]pyridin]-8′-yl)carbamoyl)thiophene-2-sulfonimidamide], the pIC50 (Table B1, class symbols, read-out: Average IC50 of compounds in hTHP-1 assay: hTHP-1 IC50) is 5.30 to 6.00. `CCn1cc(F)c(S(N)(=O)=NC(=O)Nc2c3c(nc(C(F)(F)F)c2-c2cccc(F)c2)CCC3)n1` (single isomer, unassigned) [Example 782, (S) or (R)-1-ethyl-4-fluoro-N′-((3-(3-fluorophenyl)-2-(trifluoromethyl)-6,7-dihydro-5H-cyclopenta[b]pyridin-4-yl)carbamoyl)-1H-pyrazole-3-sulfonimidamide]: under setting [6], the pIC50 was 6.00 to 6.70. Consider `Cc1c(C(F)(F)F)nc2c(c1NC(=O)N=[S@@](N)(=O)c1cnc(C(C)(C)O)s1)CC(C)C2` (stereo partly drawn) [Example 576, (R)-N′-((3,6-dimethyl-2-(trifluoromethyl)-6,7-dihydro-5H-cyclopenta[b]pyridin-4-yl)carbamoyl)-2-(2-hydroxypropan-2-yl)thiazole-5-sulfonimidamide], for which, under setting [5], the pIC50 is 6.00 to 6.70. For `C[C@@H]1CCc2c1nc1c(c2NC(=O)N=S(N)(=O)c2nn(C(F)F)cc2F)CCC1` (stereo partly drawn) [Compound 718a], the pIC50 under setting [1] was 6.70 to 7.40. Regarding `CC(C)(O)c1cc(Cl)c(S(N)(=O)=NC(=O)Nc2c3c(nc4c2CCC4)CCC3)s1` (single isomer, unassigned) [Compound 691a, (S) or (R)-3-Chloro-N′-((1,2,3,5,6,7-hexahydrodicyclopenta [b,e]pyridin-8-yl)carbamoyl)-5-(2-hydroxypropan-2-yl)thiophene-2-sulfonimidamide], the pIC50 under setting [3] was 4.52 to 5.30.

As to `CN[C@H]1COc2c(S(N)(=O)=NC(=O)Nc3c(C)c(C(F)(F)F)nc4c3CCC4)cnn2C1` (stereo partly drawn) [Example 580, (6R)-N′-((3-methyl-2-(trifluoromethyl)-6,7-dihydro-5H-cyclopenta[b]pyridin-4-yl)carbamoyl)-6-(methylamino)-6,7-dihydro-5H-pyrazolo[5,1-b][1,3]oxazine-3-sulfonimidamide], the pIC50 under setting [5] is 5.30 to 6.00. For `CC(C)(O)c1csc(S(N)(=O)=NC(=O)Nc2c3c(nc4c2CCC4)CCC3)c1` (stereo not drawn) [Compound 155, N′-((1,2,3,5,6,7-hexahydrodicyclopenta[b,e]pyridin-8-yl)carbamoyl)-4-(2-hydroxypropan-2-yl)thiophene-2-sulfonimidamide], under setting [4], the negative logarithm of the IC50 (pIC50) was 6.70 to 7.40. As for `CC(C)(O)c1ccc(S(N)(=O)=NC(=O)Nc2c3c(nc4c2CCC4)CCC3)cc1` (single isomer, unassigned) [Compound 633a, (S) or (R)-N′-((1,2,3,5,6,7-hexahydrodicyclopenta [b,e]pyridin-8-yl)carbamoyl)-4-(2-hydroxypropan-2-yl)benzene-sulfonimidamide], the pIC50 under setting [2] is less than 4.52. In the case of `CC(C)(O)c1csc(S(N)(=O)=NC(=O)Nc2cc(C(F)(F)F)nc3c2CCC3)c1` (stereo not drawn) [Example 567, 4-(2-Hydroxypropan-2-yl)-N′-((2-(trifluoromethyl)-6,7-dihydro-5H-cyclopenta[b]pyridin-4-yl)carbamoyl)thiophene-2-sulfonimidamide], the pIC50 under setting [5] was 4.52 to 5.30. In the case of `Cc1c(C(F)(F)F)nc2c(c1NC(=O)N=S(N)(=O)c1nn(-c3ccccc3)cc1F)CCC2` (single isomer, unassigned) [Example 783, (R) or (S)-4-fluoro-N′-((3-methyl-2-(trifluoromethyl)-6,7-dihydro-5H-cyclopenta [b]pyridin-4-yl)carbamoyl)-1-phenyl-1H-pyrazole-3-sulfonimidamide], the negative logarithm of the IC50 (pIC50) under setting [6] was 5.30 to 6.00.

The record behind these values is US20230031406A1, “COMPOUNDS AND COMPOSITIONS FOR TREATING CONDITIONS ASSOCIATED WITH NLRP ACTIVITY” (Novartis AG, priority 2018, published 2023).
